Earlier results as cited in patent publication US8470377B2, “Composition and method for reducing food intake” (Natures Remedies Ltd., priority 2009, dated 2013).

Legend:
[1] = for food intake and appetite ratings: literature studies
GLP-1 = conditions: approximately 20 g per day for 7 days, human volunteers

Compound	food intake and appetite ratings [1]	other results
methylcellulose	not significantly reduced	
fructooligosaccharides	not significantly reduced	
sodium alginate		reduction in energy intake ([1]; human studies): 7%
O=C(O)CC(O)(C(=O)O)C(O)C(=O)O (centres unmarked) [HCA-SX, hydroxycitric acid]		decrease in food intake ([1]; human studies): 4%
oligofructose		serum GLP-1 levels (GLP-1): increased; reduction in total intake ([1]; human studies): 5%
beta-glucan	not significantly reduced	
pectin	not significantly reduced	
